Measured values: article PMC10130856 (Heliyon, 2023)

Molecular target: hen egg-white lysozyme (HEWL) (Gallus gallus, UniProt P00698)
Experiment: intrinsic tryptophan fluorescence quenching
Assay type: binding
Settings: pH 7.4, 20 mM sodium phosphate, 298.15 K, 5 μM protein; double-log

Chain of hen egg-white lysozyme (HEWL) (P00698 19-147): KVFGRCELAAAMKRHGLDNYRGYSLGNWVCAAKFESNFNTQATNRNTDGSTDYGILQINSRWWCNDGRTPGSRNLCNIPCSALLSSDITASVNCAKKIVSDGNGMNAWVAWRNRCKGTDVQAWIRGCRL

SMILES: CCCCC(=O)N(Cc1ccc(-c2ccccc2-c2nn[nH]n2)cc1)[C@H](C(=O)O)C(C)C [valsartan]
- Kb(M^-1): 2.96 × 10^8±0.21 M^−1
